The values below come from patent US11505558B1, “Antiviral heterocyclic compounds” (Enanta Pharmaceuticals, Inc., priority 2019, dated 2022).

By EC50 is commonly meant the concentration giving half of the maximal effect.

The assay has as its system genotype A, "Long" strain RSV. The assay is described as follows: RSV-A assay (CPE, ATPlite readout in Hep-2 cells). It is filed as cell-based. The following applies: human respiratory syncytial virus, HEp-2, Hep-2 cells, genotype A "Long" strain RSV, MOI 0.1; read-out: Human RSV-A (“Long” strain) EC50. An outline of the steps:
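Protection from RSV-induced cytopathic effect, measured as ATPlite luminescence after 5 days, gave EC50 values. Assay used genotype A Long strain at MOI 0.1 on Hep-2 cells seeded at 8,000/well in DMEM growth media with 10% FBS; compounds tested as 2-fold dilutions in duplicate.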
On to `CNC(=O)Nc1cc(C(=O)NC[C@](O)(c2cc3c(c(-c4ccc(F)cc4)n2)OC[C@]3(C)C(N)=O)C(F)(F)F)cc2cccnc12` [Example 409], for which the EC50 was less than 200 nM. The value for `C[C@]1(C(N)=O)COc2c1cc([C@@](O)(CNC(=O)c1cc(NC(=O)N3CCC3)c3ncccc3c1)C(F)(F)F)nc2-c1ccc(F)cc1` [Example 410] was less than 200 nM. The value for `CC(C)(O)CNC(=O)Nc1cc(C(=O)NC[C@](O)(c2cc3c(c(-c4ccc(F)cc4)n2)OC[C@]3(C)C(N)=O)C(F)(F)F)cc2cccnc12` [Example 412] was less than 200 nM; that for `C[C@]1(C(N)=O)COc2c1cc([C@@](O)(CNC(=O)c1cc(NC(=O)NC3CNC3)c3ncccc3c1)C(F)(F)F)nc2-c1ccc(F)cc1` [Example 413] was more than 200 nM; that for `C[C@]1(C(N)=O)COc2c1cc([C@@](O)(CNC(=O)c1cc(NC(=O)NC3COC3)c3ncccc3c1)C(F)(F)F)nc2-c1ccc(F)cc1` [Example 414] was less than 200 nM. The value for `C[C@]1(C(N)=O)COc2c1cc([C@@](O)(CNC(=O)c1cc(NC(=O)NC3CC3)c3ncccc3c1)C(F)(F)F)nc2-c1ccc(F)cc1` [Example 415] was less than 200 nM; that for `C[C@]1(C(N)=O)COc2c1cc([C@@](O)(CNC(=O)c1ccc3nc(N)oc3c1)C(F)(F)F)nc2-c1ccc(F)cc1` [Example 425] was less than 200 nM. For `C[C@]1(C(N)=O)COc2c1cc([C@@](O)(CNC(=O)c1ccc3nc(N)oc3c1)C(F)(F)F)nc2-c1ccc(F)c(Cl)c1` [Example 426], the concentration for a half-maximal effect (EC50) is less than 200 nM.

As for `COc1cc(C(=O)NC[C@](O)(c2cc3c(c(-c4ccc(F)cc4)n2)OC[C@]3(C)C(N)=O)C(F)(F)F)cc2cn(C)nc12` [Example 427], the EC50 was less than 200 nM. As to `COc1cc(C(=O)NC[C@](O)(c2cc3c(c(-c4ccc(F)c(Cl)c4)n2)OC[C@]3(C)C(N)=O)C(F)(F)F)cc2cn(C)nc12` [Example 428], the 50% effective concentration (EC50) was less than 200 nM.

As to `C[C@]1(C(N)=O)COc2c1cc([C@@](O)(CNC(=O)c1ccc3nc(N)sc3c1)C(F)(F)F)nc2-c1ccc(F)c(Cl)c1` [Example 432], the EC50 was less than 200 nM. The value for `COc1cc(C(=O)NC[C@](O)(c2cc3c(c(-c4ccc(Cl)c(F)c4)n2)OC[C@]3(C)C(N)=O)C(F)(F)F)cc2sc(N)nc12` [Example 434] was less than 200 nM; that for `COc1cc(C(=O)NC[C@](O)(c2cc3c(c(-c4ccc(C)cc4)n2)OC[C@]3(C)C(N)=O)C(F)(F)F)cc2sc(N)nc12` [Example 435] was less than 200 nM.

Turning to `CN(C)c1nc2ccc(C(=O)NC[C@](O)(c3cc4c(c(-c5ccc(F)cc5)n3)OC[C@]4(C)C(N)=O)C(F)(F)F)cc2s1` [Example 438], the EC50 is less than 200 nM. `CNc1nc2ccc(C(=O)NC[C@](O)(c3cc4c(c(-c5ccc(F)cc5)n3)OC[C@]4(C)C(N)=O)C(F)(F)F)cc2s1` [Example 439]: the EC50 is less than 200 nM.

As to `C[C@]1(C(N)=O)COc2c1cc([C@@](O)(CNC(=O)c1ccc3nc(NC4CC4)sc3c1)C(F)(F)F)nc2-c1ccc(F)cc1` [Example 440], the EC50 was less than 200 nM. The value for `C[C@]1(C(N)=O)COc2c1cc([C@@](O)(CNC(=O)c1ccc3nc(N)sc3c1)C1CC1)nc2-c1ccc(F)cc1` [Example 441] was less than 200 nM. In the case of `C[C@]1(C(N)=O)COc2c1cc([C@@](O)(CNC(=O)c1cc(O)c3nc(N)sc3c1)C(F)(F)F)nc2-c1ccc(F)cc1` [Example 442], the EC50 is less than 200 nM. `C[C@]1(C(N)=O)COc2c1cc([C@@](O)(CNC(=O)c1cc(F)c3nc(N)sc3c1)C(F)(F)F)nc2-c1ccc(F)cc1` [Example 443]: the EC50 was less than 200 nM. The value for `Cn1c(N)nc2cc(C(=O)NC[C@](O)(c3cc4c(c(-c5ccc(F)cc5)n3)OC[C@]4(C)C(N)=O)C(F)(F)F)ccc21` [Example 447] was more than 200 nM; that for `C[C@]1(C(N)=O)COc2c1cc([C@@](O)(CNC(=O)c1ccc3nc(N)sc3c1)C(F)(F)F)nc2-c1ccc(Cl)cc1` [Example 448] was less than 200 nM. Turning to `C[C@]1(C(=O)NC2(C#N)CC2)COc2c1cc([C@@](O)(CNC(=O)c1cc(OC3CC3)c3ncccc3c1)C(F)(F)F)nc2-c1ccc(F)cc1` [Example 450], the EC50 is less than 200 nM. The value for `CC(C)(C)NC(=O)[C@@]1(C)COc2c1cc([C@@](O)(CNC(=O)c1cc(OC3CC3)c3ncccc3c1)C(F)(F)F)nc2-c1ccc(F)cc1` [Example 453] was less than 200 nM; that for `CC(=O)NCCNC(=O)[C@@]1(C)COc2c1cc([C@@](O)(CNC(=O)c1cc(OC3CC3)c3ncccc3c1)C(F)(F)F)nc2-c1ccc(F)cc1` [Example 454] was more than 200 nM; that for `CC(=O)NCCCNC(=O)[C@@]1(C)COc2c1cc([C@@](O)(CNC(=O)c1cc(OC3CC3)c3ncccc3c1)C(F)(F)F)nc2-c1ccc(F)cc1` [Example 455] was less than 200 nM. `CCCNC(=O)[C@@]1(C)COc2c1cc([C@@](O)(CNC(=O)c1cc(OC3CC3)c3ncccc3c1)C(F)(F)F)nc2-c1ccc(F)cc1` [Example 456]: the EC50 is less than 200 nM. With `C[C@]1(C(=O)NCCCOC(N)=O)COc2c1cc([C@@](O)(CNC(=O)c1cc(OC3CC3)c3ncccc3c1)C(F)(F)F)nc2-c1ccc(F)cc1` [Example 457], the EC50 was less than 200 nM. In the case of `C[C@]1(C(=O)NC(=N)N)COc2c1cc([C@@](O)(CNC(=O)c1cc(OC3CC3)c3ncccc3c1)C(F)(F)F)nc2-c1ccc(F)cc1` [Example 458], the EC50 is more than 200 nM. For the compound `CNC(=O)NCCNC(=O)[C@@]1(C)COc2c1cc([C@@](O)(CNC(=O)c1cc(OC3CC3)c3ncccc3c1)C(F)(F)F)nc2-c1ccc(F)cc1` [Example 461], the EC50 was more than 200 nM. The value for `CNC(=O)NCCCNC(=O)[C@@]1(C)COc2c1cc([C@@](O)(CNC(=O)c1cc(OC3CC3)c3ncccc3c1)C(F)(F)F)nc2-c1ccc(F)cc1` [Example 462] was more than 200 nM. The value for `C[C@]1(C(=O)NCCN)COc2c1cc([C@@](O)(CNC(=O)c1cc(OC3CC3)c3ncccc3c1)C(F)(F)F)nc2-c1ccc(F)cc1` [Example 463] was more than 200 nM. The value for `C[C@]1(C(=O)N2CC[C@@H](O)C2)COc2c1cc([C@@](O)(CNC(=O)c1cc(OC3CC3)c3ncccc3c1)C(F)(F)F)nc2-c1ccc(F)cc1` [Example 468] was more than 200 nM; that for `C[C@]1(C(=O)N2CC[C@H](O)C2)COc2c1cc([C@@](O)(CNC(=O)c1cc(OC3CC3)c3ncccc3c1)C(F)(F)F)nc2-c1ccc(F)cc1` [Example 469] was more than 200 nM; that for `C[C@]1(C(=O)N2CC(O)C2)COc2c1cc([C@@](O)(CNC(=O)c1cc(OC3CC3)c3ncccc3c1)C(F)(F)F)nc2-c1ccc(F)cc1` [Example 470] was more than 200 nM. `CC(C)CCNC(=O)[C@@]1(C)COc2c1cc([C@@](O)(CNC(=O)c1cc(OC3CC3)c3ncccc3c1)C(F)(F)F)nc2-c1ccc(F)cc1` [Example 472]: the EC50 is more than 200 nM. The value for `CNC(=O)CCNC(=O)[C@@]1(C)COc2c1cc([C@@](O)(CNC(=O)c1cc(OC3CC3)c3ncccc3c1)C(F)(F)F)nc2-c1ccc(F)cc1` [Example 474] was less than 200 nM. The value for `C[C@]1(C(=O)NCC(N)=O)COc2c1cc([C@@](O)(CNC(=O)c1cc(OC3CC3)c3ncccc3c1)C(F)(F)F)nc2-c1ccc(F)cc1` [Example 476] was less than 200 nM; that for `C[C@]1(C(=O)NCCNC(N)=O)COc2c1cc([C@@](O)(CNC(=O)c1cc(OC3CC3)c3ncccc3c1)C(F)(F)F)nc2-c1ccc(F)cc1` [Example 478] was more than 200 nM.
